Reference: publication PMC3914206

Tests used:
Experiment in all cases: KiNativ chemical proteomics profiling in HeLa and PC3 cell lysates
Type in all cases: binding
[1] = target: T1, selected panels of kinases in HeLa and PC3 cell lysates (Homo sapiens, UniProt Q86SG6); details: 10 uM; proteome PC3; peptide DLkTQNILLDK; labeling site Lys2
T1 construct: endogenous in cells; host or cells: HeLa and PC3 cell lysates

[2] = target: T2, selected panels of kinases in HeLa and PC3 cell lysates (Homo sapiens, UniProt Q96S38); details: 10 uM; RSKL1 domain1; peptide VLGVIDkVLLVMDTR; proteome HEL; labeling site Protein Kinase Domain
T2 construct: endogenous in cells; host or cells: HeLa and PC3 cell lysates

[3] = target: T3, selected panels of kinases in HeLa and PC3 cell lysates (Homo sapiens, UniProt Q9Y5S2); details: 10 uM, proteome PC3
T3 construct: endogenous in cells; host or cells: HeLa and PC3 cell lysates

[4] = target: T4, selected panels of kinases in HeLa and PC3 cell lysates (Homo sapiens, UniProt Q9NYL2); details: 10 uM, ZAK, peptide […]k, labeling site Lys1
T4 construct: endogenous in cells; host or cells: HeLa and PC3 cell lysates

[5] = target: T5, selected panels of kinases in HeLa and PC3 cell lysates (Homo sapiens, UniProt P41743); details: 10 uM; PKCi; peptide IYAMkVVK; proteome HEL; labeling site Lys1
T5 construct: endogenous in cells; host or cells: HeLa and PC3 cell lysates

[6] = target: T6, selected panels of kinases in HeLa and PC3 cell lysates (Homo sapiens, UniProt Q86UE8); details: 10 uM; TLK2; peptide YVAVkIHQLNK; proteome PC3; labeling site Lys1
T6 construct: endogenous in cells; host or cells: HeLa and PC3 cell lysates

[7] = target: T7, selected panels of kinases in HeLa and PC3 cell lysates (Homo sapiens, UniProt P42338); details: 10 uM; PIK3CB; peptide […]k[…]; proteome PC3; labeling site ATP
T7 construct: endogenous in cells; host or cells: HeLa and PC3 cell lysates

[8] = target: T8, selected panels of kinases in HeLa and PC3 cell lysates (Homo sapiens, UniProt Q16539); details: 10 uM
T8 construct: endogenous in cells; host or cells: HeLa and PC3 cell lysates

[9] = target: T9, selected panels of kinases in HeLa and PC3 cell lysates (Homo sapiens, UniProt Q13555); details: 10 uM, peptide TSTQEYAAkIINTK, labeling site Lys1
T9 construct: endogenous in cells; host or cells: HeLa and PC3 cell lysates

[10] = target: T10, selected panels of kinases in HeLa and PC3 cell lysates (Homo sapiens, UniProt Q13188); details: 10 uM, peptide […]k[…], labeling site Lys1
T10 construct: endogenous in cells; host or cells: HeLa and PC3 cell lysates
T10 sequence (Q13188 1-491): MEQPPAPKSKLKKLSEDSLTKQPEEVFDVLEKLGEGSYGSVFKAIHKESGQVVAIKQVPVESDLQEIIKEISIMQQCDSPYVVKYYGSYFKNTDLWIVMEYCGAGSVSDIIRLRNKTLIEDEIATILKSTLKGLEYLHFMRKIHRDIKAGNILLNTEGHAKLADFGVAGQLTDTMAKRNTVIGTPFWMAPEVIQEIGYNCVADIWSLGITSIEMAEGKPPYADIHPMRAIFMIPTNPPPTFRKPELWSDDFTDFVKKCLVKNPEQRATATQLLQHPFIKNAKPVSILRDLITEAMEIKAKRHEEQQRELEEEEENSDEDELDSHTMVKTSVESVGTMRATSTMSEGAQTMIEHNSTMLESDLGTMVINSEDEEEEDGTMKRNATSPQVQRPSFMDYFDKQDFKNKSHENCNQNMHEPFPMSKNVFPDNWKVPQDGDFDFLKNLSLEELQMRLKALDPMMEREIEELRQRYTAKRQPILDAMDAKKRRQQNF

[11] = target: T11, selected panels of kinases in HeLa and PC3 cell lysates (Homo sapiens, UniProt P29317); details: 10 uM, proteome PC3
T11 construct: endogenous in cells; host or cells: HeLa and PC3 cell lysates

[12] = target: T12, selected panels of kinases in HeLa and PC3 cell lysates (Homo sapiens, UniProt Q96BR1); details: 10 uM; SGK3; peptide FYAVkVLQK; proteome HEL; labeling site Lys1
T12 construct: endogenous in cells; host or cells: HeLa and PC3 cell lysates

[13] = target: T13, selected panels of kinases in HeLa and PC3 cell lysates (Homo sapiens, UniProt Q8TBX8); details: 10 uM, PIP4K2C, labeling site ATP
T13 construct: endogenous in cells; host or cells: HeLa and PC3 cell lysates
T13 sequence (Q8TBX8 1-421): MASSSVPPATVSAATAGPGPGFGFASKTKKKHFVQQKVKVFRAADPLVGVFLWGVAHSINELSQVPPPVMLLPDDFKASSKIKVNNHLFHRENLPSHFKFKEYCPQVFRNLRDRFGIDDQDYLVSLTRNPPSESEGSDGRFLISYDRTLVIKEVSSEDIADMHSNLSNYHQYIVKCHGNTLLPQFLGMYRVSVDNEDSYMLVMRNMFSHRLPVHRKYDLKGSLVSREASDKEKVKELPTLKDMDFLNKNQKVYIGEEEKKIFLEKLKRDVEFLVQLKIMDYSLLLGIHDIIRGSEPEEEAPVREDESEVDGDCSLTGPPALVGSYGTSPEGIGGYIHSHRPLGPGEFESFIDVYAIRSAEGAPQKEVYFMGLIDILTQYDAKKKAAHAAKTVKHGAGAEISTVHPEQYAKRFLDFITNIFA

[14] = target: T14, selected panels of kinases in HeLa and PC3 cell lysates (Homo sapiens, UniProt O60674); details: 10 uM; proteome HEL; peptide IGDFGLTk[…]; labeling site Activation Loop
T14 construct: endogenous in cells; host or cells: HeLa and PC3 cell lysates

[15] = target: T15, selected panels of kinases in HeLa and PC3 cell lysates (Homo sapiens, UniProt P50613); details: 10 uM; proteome HEL; peptide DLk[…]; labeling site Lys2
T15 construct: endogenous in cells; host or cells: HeLa and PC3 cell lysates

[16] = target: T16, selected panels of kinases in HeLa and PC3 cell lysates (Homo sapiens, UniProt P27361); details: 10 uM, peptide DLk[…], labeling site Lys2
T16 construct: endogenous in cells; host or cells: HeLa and PC3 cell lysates

[17] = peptide DIk[…], labeling site Lys2
[18] = peptide […]kLPETK, labeling site Other
[19] = proteome HEL, peptide DLk[…], labeling site Lys2
[20] = proteome HEL, peptide QELNkTIWEVPER, labeling site Other
[21] = proteome PC3, peptide DLk[…], labeling site Lys2
[22] = proteome PC3, peptide QELNkTIWEVPER, labeling site Other
[23] = peptide EVPVAIkTLK, labeling site Lys1
[24] = peptide […]kIPIR, labeling site Activation Loop
[25] = peptide ELPTLkDMDFLNK, proteome PC3

T8 sequence (Q16539 whole entry): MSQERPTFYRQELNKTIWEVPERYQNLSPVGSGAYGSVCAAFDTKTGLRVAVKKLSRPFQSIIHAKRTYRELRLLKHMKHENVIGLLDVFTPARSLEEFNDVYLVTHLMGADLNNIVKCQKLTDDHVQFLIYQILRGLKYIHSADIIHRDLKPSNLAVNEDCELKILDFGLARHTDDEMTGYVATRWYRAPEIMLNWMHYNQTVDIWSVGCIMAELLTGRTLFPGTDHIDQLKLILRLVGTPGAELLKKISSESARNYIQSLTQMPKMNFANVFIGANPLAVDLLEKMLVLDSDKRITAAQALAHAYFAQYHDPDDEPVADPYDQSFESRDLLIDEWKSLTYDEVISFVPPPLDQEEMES
T11 sequence (P29317 24-976): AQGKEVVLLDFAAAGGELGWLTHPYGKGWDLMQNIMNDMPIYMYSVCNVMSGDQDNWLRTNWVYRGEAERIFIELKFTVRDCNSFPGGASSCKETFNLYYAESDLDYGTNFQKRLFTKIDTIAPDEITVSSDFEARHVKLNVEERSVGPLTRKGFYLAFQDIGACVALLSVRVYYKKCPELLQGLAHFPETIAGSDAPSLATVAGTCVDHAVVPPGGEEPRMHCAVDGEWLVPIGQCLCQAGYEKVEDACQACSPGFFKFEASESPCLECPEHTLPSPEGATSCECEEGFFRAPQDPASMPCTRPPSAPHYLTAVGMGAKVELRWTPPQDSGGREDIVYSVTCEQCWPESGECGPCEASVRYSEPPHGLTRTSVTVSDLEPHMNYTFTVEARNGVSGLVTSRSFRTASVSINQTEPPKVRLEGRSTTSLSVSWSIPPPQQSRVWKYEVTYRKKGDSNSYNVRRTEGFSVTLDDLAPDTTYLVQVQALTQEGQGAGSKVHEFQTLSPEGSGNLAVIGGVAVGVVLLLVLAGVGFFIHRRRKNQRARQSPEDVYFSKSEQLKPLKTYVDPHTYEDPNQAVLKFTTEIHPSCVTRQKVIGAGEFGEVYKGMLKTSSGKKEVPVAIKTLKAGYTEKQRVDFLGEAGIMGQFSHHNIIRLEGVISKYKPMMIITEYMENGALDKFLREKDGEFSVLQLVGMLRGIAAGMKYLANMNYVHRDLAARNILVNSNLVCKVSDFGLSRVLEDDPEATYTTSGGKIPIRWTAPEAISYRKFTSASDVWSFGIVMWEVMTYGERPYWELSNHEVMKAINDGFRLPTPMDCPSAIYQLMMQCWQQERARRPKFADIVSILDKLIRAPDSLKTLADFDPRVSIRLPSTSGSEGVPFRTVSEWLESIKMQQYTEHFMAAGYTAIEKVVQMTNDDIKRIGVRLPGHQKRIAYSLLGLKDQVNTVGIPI
T3 sequence (Q9Y5S2 whole entry): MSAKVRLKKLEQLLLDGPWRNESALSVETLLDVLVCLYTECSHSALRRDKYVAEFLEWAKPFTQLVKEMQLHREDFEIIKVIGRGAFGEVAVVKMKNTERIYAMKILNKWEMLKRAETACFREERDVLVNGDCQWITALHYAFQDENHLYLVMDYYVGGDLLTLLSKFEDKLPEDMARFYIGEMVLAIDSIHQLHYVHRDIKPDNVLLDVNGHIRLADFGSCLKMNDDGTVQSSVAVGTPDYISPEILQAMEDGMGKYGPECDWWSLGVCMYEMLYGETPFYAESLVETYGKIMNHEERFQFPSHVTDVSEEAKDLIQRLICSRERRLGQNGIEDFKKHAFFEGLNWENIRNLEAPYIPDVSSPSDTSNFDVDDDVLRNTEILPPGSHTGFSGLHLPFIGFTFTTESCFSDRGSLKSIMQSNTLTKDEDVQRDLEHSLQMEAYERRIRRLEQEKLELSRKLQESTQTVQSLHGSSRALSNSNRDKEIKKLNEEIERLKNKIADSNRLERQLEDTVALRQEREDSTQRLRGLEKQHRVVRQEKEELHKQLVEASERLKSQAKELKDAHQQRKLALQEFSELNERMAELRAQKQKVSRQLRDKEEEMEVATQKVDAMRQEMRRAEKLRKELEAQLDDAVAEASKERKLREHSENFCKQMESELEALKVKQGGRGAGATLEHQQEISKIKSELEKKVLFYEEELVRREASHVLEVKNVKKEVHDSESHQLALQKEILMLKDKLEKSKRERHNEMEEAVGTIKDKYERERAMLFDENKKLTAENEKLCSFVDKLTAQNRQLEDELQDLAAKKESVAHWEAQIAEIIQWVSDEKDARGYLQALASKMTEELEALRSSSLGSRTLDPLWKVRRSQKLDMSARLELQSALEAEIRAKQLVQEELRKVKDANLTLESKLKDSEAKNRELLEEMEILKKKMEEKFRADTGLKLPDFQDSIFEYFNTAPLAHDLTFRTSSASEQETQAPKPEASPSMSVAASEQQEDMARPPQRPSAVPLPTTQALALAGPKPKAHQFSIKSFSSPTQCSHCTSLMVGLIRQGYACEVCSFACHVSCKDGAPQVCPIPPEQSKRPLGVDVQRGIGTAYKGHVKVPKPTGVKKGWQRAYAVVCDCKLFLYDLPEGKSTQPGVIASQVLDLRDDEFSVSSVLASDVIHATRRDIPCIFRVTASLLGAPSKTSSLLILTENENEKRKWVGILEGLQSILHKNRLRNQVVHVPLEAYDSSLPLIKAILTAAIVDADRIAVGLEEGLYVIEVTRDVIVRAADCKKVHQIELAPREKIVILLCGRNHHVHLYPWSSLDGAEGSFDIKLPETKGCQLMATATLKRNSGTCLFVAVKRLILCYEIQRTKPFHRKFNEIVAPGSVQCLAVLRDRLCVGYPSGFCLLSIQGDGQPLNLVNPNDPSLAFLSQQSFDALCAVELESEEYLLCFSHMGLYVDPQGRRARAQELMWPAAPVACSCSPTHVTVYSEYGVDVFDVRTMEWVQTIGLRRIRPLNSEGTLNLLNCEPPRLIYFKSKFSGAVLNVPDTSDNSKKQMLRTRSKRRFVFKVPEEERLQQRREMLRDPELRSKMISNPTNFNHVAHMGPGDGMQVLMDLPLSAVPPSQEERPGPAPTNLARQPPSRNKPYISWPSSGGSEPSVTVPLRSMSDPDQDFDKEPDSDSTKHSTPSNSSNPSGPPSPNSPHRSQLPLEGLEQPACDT
T16 sequence (P27361 whole entry): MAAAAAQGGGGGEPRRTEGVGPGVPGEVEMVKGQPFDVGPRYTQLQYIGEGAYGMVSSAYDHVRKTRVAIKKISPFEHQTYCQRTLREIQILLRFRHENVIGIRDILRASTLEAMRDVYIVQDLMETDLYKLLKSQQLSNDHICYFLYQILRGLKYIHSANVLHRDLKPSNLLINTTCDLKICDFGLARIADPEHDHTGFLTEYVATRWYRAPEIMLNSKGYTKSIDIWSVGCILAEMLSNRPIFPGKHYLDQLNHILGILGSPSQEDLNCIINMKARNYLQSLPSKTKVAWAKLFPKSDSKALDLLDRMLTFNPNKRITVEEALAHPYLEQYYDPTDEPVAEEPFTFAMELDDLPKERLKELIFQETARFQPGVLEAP
T9 sequence (Q13555 whole entry): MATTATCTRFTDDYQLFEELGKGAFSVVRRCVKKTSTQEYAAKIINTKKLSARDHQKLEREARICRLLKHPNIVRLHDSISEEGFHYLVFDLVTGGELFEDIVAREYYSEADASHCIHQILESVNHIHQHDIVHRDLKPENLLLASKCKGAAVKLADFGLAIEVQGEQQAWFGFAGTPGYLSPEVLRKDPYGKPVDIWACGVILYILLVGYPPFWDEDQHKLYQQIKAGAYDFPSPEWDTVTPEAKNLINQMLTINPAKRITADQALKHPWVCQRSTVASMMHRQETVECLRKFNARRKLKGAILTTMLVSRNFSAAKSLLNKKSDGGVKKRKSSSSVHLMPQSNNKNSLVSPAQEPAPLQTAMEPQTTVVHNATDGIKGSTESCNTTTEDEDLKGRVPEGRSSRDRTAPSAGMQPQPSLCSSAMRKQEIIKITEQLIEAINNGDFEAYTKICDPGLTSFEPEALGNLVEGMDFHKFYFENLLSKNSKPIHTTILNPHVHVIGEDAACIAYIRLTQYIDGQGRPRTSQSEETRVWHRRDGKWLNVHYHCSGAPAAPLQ
T4 sequence (Q9NYL2 whole entry): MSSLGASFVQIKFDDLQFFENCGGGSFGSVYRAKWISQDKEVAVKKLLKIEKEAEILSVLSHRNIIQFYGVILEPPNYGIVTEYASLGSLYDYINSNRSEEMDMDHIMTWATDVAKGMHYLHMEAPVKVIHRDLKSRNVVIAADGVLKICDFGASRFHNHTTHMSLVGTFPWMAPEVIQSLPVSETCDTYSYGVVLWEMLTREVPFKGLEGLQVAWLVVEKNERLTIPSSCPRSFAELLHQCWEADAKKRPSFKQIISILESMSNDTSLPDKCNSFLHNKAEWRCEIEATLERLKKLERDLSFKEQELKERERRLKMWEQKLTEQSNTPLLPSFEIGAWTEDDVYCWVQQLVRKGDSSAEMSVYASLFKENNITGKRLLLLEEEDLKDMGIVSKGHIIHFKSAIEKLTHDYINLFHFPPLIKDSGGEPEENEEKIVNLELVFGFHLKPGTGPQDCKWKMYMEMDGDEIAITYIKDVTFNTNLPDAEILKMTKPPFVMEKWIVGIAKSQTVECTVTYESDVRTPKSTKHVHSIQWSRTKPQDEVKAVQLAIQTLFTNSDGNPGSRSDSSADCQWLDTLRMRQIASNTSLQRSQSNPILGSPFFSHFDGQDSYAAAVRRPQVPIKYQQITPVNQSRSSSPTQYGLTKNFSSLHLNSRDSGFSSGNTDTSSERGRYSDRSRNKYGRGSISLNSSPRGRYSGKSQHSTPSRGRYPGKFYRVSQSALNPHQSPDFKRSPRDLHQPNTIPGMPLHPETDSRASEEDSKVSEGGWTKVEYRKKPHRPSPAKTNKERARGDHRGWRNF

Row | Compound | % Inhibiton, NEK8 [1] | % Inhibition RSKL1 domain1 [2] | % Inhibiton, MRCKb [3, 17] | % Inhibiton, MRCKb [3, 18] | % Inhibition ZAK ([4]; proteome HEL) | % Inhibition ZAK ([4]; proteome PC3) | % Inhibition PKCi [5] | % Inhibition TLK2 [6] | % Inhibition PIK3CB [7] | % Inhibiton, p38a [8, 19] | % Inhibiton, p38a [8, 20] | % Inhibiton, p38a [8, 21] | % Inhibiton, p38a [8, 22] | % Inhibiton, CaMK2g ([9]; proteome HEL) | % Inhibiton, CaMK2g ([9]; proteome PC3) | % Inhibiton, MST2 ([10]; proteome HEL) | % Inhibiton, MST2 ([10]; proteome PC3) | % Inhibiton, EphA2 [11, 23] | % Inhibiton, EphA2 [11, 24] | % Inhibition SGK3 [12] | also measured
1 | COc1cc(C(=O)N2CCC(N3CCN(C)CC3)CC2)ccc1Nc1ncc2c(n1)N(C1CCCC1)c1ccccc1C(=O)N2C [Compound 25, 11-cyclopentyl-2-((2-methoxy-4-(4-(4-methylpiperazin-1-yl)piperidine-1-carbonyl)phenyl)amino)-5-methyl-5H-benzo[e]pyrimido[5,4-b][1,4]diazepin-6(11H)-one] | -18.9% | ~75.1% | -5.1% | 6.2% | -6.6% | -9.3% | 13.3% | -3.6% | 0.8% | 6.5% | 12.6% | 42.4% | -7.5% | 8.7% | 7.8% | -4.5% | -9.2% | -0.8% | -2.3% | 8.2% | % Inhibition PIP4K2C [13, 25]: 21.5%; % Inhibition PIP4K2C ([13]; peptide TLVIk[…], proteome HEL): 9.5%; % Inhibition PIP4K2C ([13]; peptide TLVIk[…], proteome PC3): -0.123%; % Inhibiton, JAK2 domain2 [14]: -9.0%; % Inhibiton, CDK7 [15]: 67.9%; % Inhibiton, Erk1 ([16]; proteome HEL): 20.3%; % Inhibiton, Erk1 ([16]; proteome PC3): 8.4%
2 | CCOc1cc(C(=O)N2CCC(N3CCN(C)CC3)CC2)ccc1Nc1ncc2c(n1)N(C1CCCC1)c1ccccc1C(=O)N2C [Compound 26] | -8.1% | -6.2% | 1.8% | 9.2% | 13.4% | -25.5% | -2.8% | -11.7% | -124.1% | -7.3% | 55% | 4.6% | -19% | 7.3% | -4.7% | 10.8% | -9.4% | -1.4% | -3% | 25.5% | % Inhibition PIP4K2C [13, 25]: -6.2%; % Inhibition PIP4K2C ([13]; peptide TLVIk[…], proteome HEL): 4.7%; % Inhibition PIP4K2C ([13]; peptide TLVIk[…], proteome PC3): -5.8%; % Inhibiton, JAK2 domain2 [14]: 6.5%; % Inhibiton, CDK7 [15]: 22.2%; % Inhibiton, Erk1 ([16]; proteome HEL): -1.3%; % Inhibiton, Erk1 ([16]; proteome PC3): -0.2%
